In US11149049B2, “Substituted nucleosides, nucleotides and analogs thereof” (JANSSEN BIOPHARMA, INC., priority 2017, dated 2021):
pEC50, pIC50: −log10 of the molar value. Like-named read-outs stand apart in the source and are kept apart here.

Assays:
[1] = system: RSV replicon; assay: microbe, parasite or virus in culture; type: cell-based
[2] = system: human β-coronavirus strain OC43; assay: Coronavirus antiviral assay (OC43); type: cell-based; conditions: Betacoronavirus 1, OC43, 120 h; HeLa or MRC-5 cells, five days, CellTiter-Glo; read-out: OC43CoV EC50
Experimental: (§1) The human β-coronavirus strain OC43 was purchased from ATCC (Manassas, Va.; item numbers VR-1558 and VR-740, respectively). 24 hours prior to dosing, HeLa human cervix epithelial cells (ATCC, CCL-2) or MRC-5 human lung fibroblast (ATCC, CCL-171) were plated in 96 well plates at a density of 1.5×10^5/ml in DMEM medium supplemented with 10% fetal bovine serum, 1% HEPES buffer, 1% Penicillin/Streptomycin and 1% non-essential amino acids (all Mediatech, Manassas, Va.). At the day of infection, serially diluted compounds were added to cells and incubated for 4 hours. After the end of the 4 hour pre-incubation period, cells were infected with either coronavirus strain OC43 or 229E. The virus inoculum was selected to cause 80-90% cytopathic effect. Infected cells were incubated for five days at 37° C., 5% CO2. To develop the assay, 100 μl media was replaced with 100 μl CellTiter-Glo® reagent (Promega, Madison, Wis.), and incubated for 10 min at room temperature. Luminescence was measured on a Victor X3 multi-label plate reader. Potential compound cytotoxicity was determined using uninfected parallel cultures.

[3] = Cell viability (CC50) in the RSV replicon assay; conditions: human, HeLa-derived cells containing the stable RSV replicon, CellTiter-Glo
[4] = system: Human rhinovirus 1B; assay: Rhinovirus antiviral assay (HRV1B); type: cell-based; conditions: Rhinovirus A, 96 h, read-out: HRV 1B EC50, HeLa-OHIO cells, 4 d, CellTiter-Glo
[5] = Cytotoxicity in the coronavirus assay, uninfected parallel cultures; type: cell-based; conditions: human, read-out: OC43CoV CC50
Experimental: as §1

[6] = Toxicity (CC50) in the HRV1B assay; conditions: human
[7] = biological target: hepatitis C virus RNA polymerase (Hepatitis C virus genotype 1a (isolate H77) (HCV), UniProt P27958); assay: HCV polymerase assay (HCVpol); type: biochemical; conditions: recombinant enzyme, tritiated NMP incorporation, 2.5 hours at 30° C.
Experimental: The enzyme activity of hepatitis C virus RNA polymerase (HCVpol) and human rhinovirus 16 RNA polymerase (HRV16pol) is measured as an incorporation of tritiated NMP into acid-insoluble RNA products. HCVpol and HRV16pol assay reactions contain 30-100 nM recombinant enzyme, 50-500 nM heteropolymeric RNA, 0.5 μCi tritiated NTP, 0.1-1 μM of other NTPs, in a standard reaction buffer containing MgCl2. Enzymatic reactions are incubated for 2.5 hours at 30° C., in the presence of increasing concentration of inhibitor. At the end of the reaction, the total RNA is precipitated with 10% TCA, and acid-insoluble RNA products are filtered on a size exclusion 96-well plate. After washing of the plate, scintillation liquid is added and radiolabeled RNA products are detected according to standard procedures with a Trilux Microbeta scintillation counter. The compound concentration at which the enzyme-catalyzed rate is reduced by 50% (IC50) is calculated by fitting the data to a non-linear regression (sigmoidal).

[8] = biological target: dengue virus NS5 polymerase domain (Dengue virus type 2, UniProt P14340); assay: Dengue polymerase assay (DENVpol); conditions: 100 nM recombinant enzyme, 3 hours at 30° C., mean of several independent experiments
Experimental: The enzyme activity of dengue virus NS5 polymerase domain (DENVpol, serotype 2, New Guinea C strain) was measured as an incorporation of tritiated NMP into acid-insoluble RNA products. DENVpol assay reactions contained 100 nM recombinant enzyme, 50 nM heteropolymeric RNA, about 0.5 μCi tritiated NTP, 0.33 μM of competing cold NTP, 40 mM HEPES (pH 7.5), 3 mM dithiothreitol, and 2 mM MgCl2. Standard reactions were incubated for 3 hours at 30° C., in the presence of increasing concentration of inhibitor. At the end of the reaction, RNA was precipitated with 10% TCA, and acid-insoluble RNA products were filtered on a size exclusion 96-well plate. After washing of the plate, scintillation liquid was added and radiolabeled RNA products were detected according to standard procedures with a Trilux Topcount scintillation counter. The compound concentration at which the enzyme-catalyzed rate was reduced by 50% (IC50) was calculated by fitting the data to a non-linear regression (sigmoidal).

[9] = biological target: human rhinovirus 16 RNA polymerase (Human rhinovirus 16 (HRV-16), UniProt Q82122); type: biochemical; conditions: recombinant enzyme, tritiated NMP incorporation, 2.5 hours at 30° C.; read-out: HRV16pol IC50
[10] = system: Ebola minigenome; assay: microbe, parasite or virus in culture; type: cell-based
[11] = in vitro; conditions: human
[12] = system: Dengue virus type 2 NG-C or Dengue virus type 4 H241; assay: Dengue antiviral assay (DENV); type: cell-based; conditions: Huh-7.5 cells, five to six days, CellTiter-Glo
Experimental: The Dengue virus type 2 strain New Guniea C (NG-C) and the Dengue virus type 4 strain H241 were purchased from ATCC (Manassas, Va.; item numbers VR-1584 and VR-1490, respectively). 24 hours prior to dosing, Huh-7.5 cells were plated in 96 well plates at a density of 1.5×10^5/ml in DMEM medium supplemented with 10% fetal bovine serum, 1% HEPES buffer, 1% Penicillin/Streptomycin and 1% non-essential amino acids (all Mediatech, Manassas, Va.). At the day of infection, serially diluted compounds were added to cells and incubated for 4 hours. After the end of the 4 hour pre-incubation period, cells were infected with either Dengue virus type 2 NG-C or Dengue virus type 4 H241. The virus inoculum was selected to cause 80-90% cytopathic effect in five to six days. Infected cells were incubated for five (NG-C) to six (H241) days at 37° C., 5% CO2. To develop the assay, 100 μl media was replaced with 100 μl CellTiter-Glo® reagent (Promega, Madison, Wis.), and incubated for 10 min at room temperature. Luminescence was measured on a Victor X3 multi-label plate reader. Potential compound cytotoxicity was determined using uninfected parallel cultures.

[13] = system: Huh-7.5 cells; assay: Cytotoxicity in the DENV assay, uninfected parallel cultures; conditions: read-out: DENV CC50; uninfected Huh-7.5 parallel cultures
[14] = as above; conditions: human, DENV CC50, uninfected Huh-7.5 parallel cultures
[15] = human respiratory syncytial virus, 168 h, read-out: RSV EC50, HeLa-derived RSV replicon cells, 7 days, luciferase
[16] = Zaire ebolavirus, HEp-2, 48 h, read-out: EBOV EC50, HEp-2 cells, Ebola minigenome, 48 hours

Sequence of human rhinovirus 16 RNA polymerase (Q82122 1694-2153 limits assumed): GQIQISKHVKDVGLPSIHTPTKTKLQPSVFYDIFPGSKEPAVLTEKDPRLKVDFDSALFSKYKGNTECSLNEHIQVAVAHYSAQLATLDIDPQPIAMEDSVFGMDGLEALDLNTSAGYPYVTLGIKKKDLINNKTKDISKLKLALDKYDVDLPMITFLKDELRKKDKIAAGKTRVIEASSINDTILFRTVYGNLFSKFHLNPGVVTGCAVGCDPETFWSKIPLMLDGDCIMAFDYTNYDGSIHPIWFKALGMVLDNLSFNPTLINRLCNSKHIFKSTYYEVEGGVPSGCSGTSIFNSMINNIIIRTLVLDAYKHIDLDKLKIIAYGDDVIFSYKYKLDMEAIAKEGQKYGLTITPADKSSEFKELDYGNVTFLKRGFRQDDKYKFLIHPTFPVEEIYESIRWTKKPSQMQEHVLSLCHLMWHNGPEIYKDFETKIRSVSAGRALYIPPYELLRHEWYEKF
Sequence of hepatitis C virus RNA polymerase (P27958 2421-3011 limits assumed): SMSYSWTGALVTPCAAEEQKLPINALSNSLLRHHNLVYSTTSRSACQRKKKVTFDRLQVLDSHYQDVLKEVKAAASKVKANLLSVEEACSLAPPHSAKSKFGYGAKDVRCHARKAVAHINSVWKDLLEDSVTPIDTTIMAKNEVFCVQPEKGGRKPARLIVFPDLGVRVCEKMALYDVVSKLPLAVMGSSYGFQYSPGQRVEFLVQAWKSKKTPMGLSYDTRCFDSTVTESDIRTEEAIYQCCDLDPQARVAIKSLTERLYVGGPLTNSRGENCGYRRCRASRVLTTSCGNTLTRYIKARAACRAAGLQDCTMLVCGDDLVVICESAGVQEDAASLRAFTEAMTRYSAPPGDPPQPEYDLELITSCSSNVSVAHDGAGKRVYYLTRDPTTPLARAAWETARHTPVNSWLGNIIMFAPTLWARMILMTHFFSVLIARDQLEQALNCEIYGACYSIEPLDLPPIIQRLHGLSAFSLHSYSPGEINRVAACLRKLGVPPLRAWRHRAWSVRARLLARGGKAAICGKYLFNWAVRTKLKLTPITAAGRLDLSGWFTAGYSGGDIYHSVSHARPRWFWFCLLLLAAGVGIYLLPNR

## CC(C)OC(=O)[C@@H](C)NP(=O)(OC[C@@]1(N=[N+]=[N-])O[C@@](C#N)(c2ccc3c(N)ncnn23)[C@H](O)[C@@H]1O)Oc1ccccc1 (stereo partly drawn) [Compound 11, Isopropyl ((((2R,3S,4R,5R)-5-(4-aminopyrrolo[2,1-f][1,2,4]triazin-7-yl)-2-azido-5-cyano-3,4-dihydroxytetrahydrofuran-2-yl)methoxy)(phenoxy)phosphoryl)-D-alaninate]
[1]; [15]
  pEC50: 5.89
[2]
  pEC50: < 4.30
[3]
  CC50 at 7 days: 13.6 µM
[4]
  pEC50: < 4.00
[5]
  CC50 at 5 days: > 50 µM
[6]
  CC50 at 4 d: 59 µM

## N#C[C@@]1(c2ccc3c(N)ncnn23)O[C@](F)(COP(=O)(O)OP(=O)(O)OP(=O)(O)O)[C@@H](O)[C@H]1O [Compound 12, ((2S,3S,4R,5R)-5-(4-Aminopyrrolo[2,1-f][1,2,4]triazin-7-yl)-5-cyano-2-fluoro-3,4-dihydroxytetrahydrofuran-2-yl)methyl tetrahydrogen triphosphate]
[7]
  pIC50: 6.40
[8]
  pIC50: 5.96
[9]
  pIC50: 6.89

## CCCOC(=O)[C@H](C)NP(=O)(N[C@@H](C)C(=O)OCCC)OC[C@@]1(F)O[C@@](C#N)(c2ccc3c(N)ncnn23)[C@H](O)[C@@H]1O [Compound 10]
[1]; [15]
  pEC50: 6.77
[2]
  pEC50: 5.64
[3]
  CC50 at 7 days: > 100 µM
[4]
  pEC50: 5.51
[5]
  CC50 at 5 days: > 50 µM
[6]
  CC50 at 4 d: > 100 µM

## N#C[C@@]1(c2ccc3c(N)ncnn23)O[C@H](COP(=O)(O)OP(=O)(O)OP(=O)(O)O)[C@@H](O)[C@H]1O [Compound C2, reference compound]
[7]
  pIC50: 6.00
[8]
  pIC50: 5.44
[9]
  pIC50: 6.57

## CC(C)CCOC(=O)C[C@H](NP(=O)(OC[C@@]1(F)O[C@@](C#N)(c2ccc3c(N)ncnn23)[C@H](O)[C@@H]1O)Oc1ccccc1)C(=O)OCCC(C)C (stereo partly drawn) [Compound 7, Diisopentyl ((((2S,3S,4R,5R)-5-(4-aminopyrrolo[2,1-f][1,2,4]triazin-7-yl)-5-cyano-2-fluoro-3,4-dihydroxytetrahydrofuran-2-yl)methoxy)(phenoxy)phosphoryl)-L-aspartate]
[1]; [15]
  pEC50: 7.52
[10]; [16]
  pEC50: 6.70
[2]
  pEC50: 7.25
[11]
  CC50: 14 µM
[3]
  CC50 at 7 days: 21 µM
[4]
  pEC50: 6.82
[12]; Dengue virus, Huh7.5, 144 h
  pEC50: 8.85
[5]
  CC50 at 5 days: 13 µM
[6]
  CC50 at 4 d: 12.4 µM
[13]
  CC50: 21 µM
[14]
  CC50: 15 µM

## N#C[C@@]1(c2ccc3c(N)ncnn23)O[C@](CF)(COP(=O)(O)OP(=O)(O)OP(=O)(O)O)[C@@H](O)[C@H]1O [Compound 13, ((2R,3S,4R,5R)-5-(4-Aminopyrrolo[2,1-f][1,2,4]triazin-7-yl)-5-cyano-2-(fluoromethyl)-3,4-dihydroxytetrahydrofuran-2-yl)methyl tetrahydrogen triphosphate]
[7]
  pIC50: < 5.00
[8]
  pIC50: < 5.00
[9]
  pIC50: 6.68

## CCC(CC)COC(=O)[C@@H](C)NP(=O)(OC[C@@]1(F)O[C@@](C#N)(c2ccc3c(N)ncnn23)[C@H](O)[C@@H]1O)Oc1ccccc1 (stereo partly drawn) [Compound 9, 2-Ethylbutyl ((((2S,3S,4R,5R)-5-(4-aminopyrrolo[2,1-f][1,2,4]triazin-7-yl)-5-cyano-2-fluoro-3,4-dihydroxytetrahydrofuran-2-yl)methoxy)(phenoxy)phosphoryl)-D-alaninate]
[1]; [15]
  pEC50: 7.74
[10]; [16]
  pEC50: 6.60
[2]
  pEC50: 7.60
[11]
  CC50: ~50 µM
[3]
  CC50 at 7 days: 8.1 µM
[4]
  pEC50: 6.89
[12]; Dengue virus, Huh7.5, 144 h
  pEC50: 7.15
[5]
  CC50 at 5 days: 34 µM
[6]
  CC50 at 4 d: 33 µM
[14]
  CC50: 12 µM

## N#C[C@@]1(c2ccc3c(N)ncnn23)O[C@@](COP(=O)(O)OP(=O)(O)OP(=O)(O)O)(N=[N+]=[N-])[C@@H](O)[C@H]1O [Compound 14, ((2R,3S,4R,5R)-5-(4-Aminopyrrolo[2,1-f][1,2,4]triazin-7-yl)-2-azido-5-cyano-3,4-dihydroxytetrahydrofuran-2-yl)methyl tetrahydrogen triphosphate]
[7]
  pIC50: 6.52
[8]
  pIC50: 5.96
[9]
  pIC50: 7.40

## CC(C)OC(=O)[C@@H](C)NP(=O)(OC[C@@]1(F)O[C@@](C#N)(c2ccc3c(N)ncnn23)[C@H](O)[C@@H]1O)Oc1ccccc1 (stereo partly drawn) [Compound 5, Isopropyl ((((2S,3S,4R,5R)-5-(4-aminopyrrolo[2,1-f][1,2,4]triazin-7-yl)-5-cyano-2-fluoro-3,4-dihydroxytetrahydrofuran-2-yl)methoxy)(phenoxy)phosphoryl)-D-alaninate]
[1]; [15]
  pEC50: 5.56
[2]
  pEC50: 4.60
[3]
  CC50 at 7 days: > 100 µM
[12]; Dengue virus, Huh7.5, 144 h
  pEC50: 5.13
[5]
  CC50 at 5 days: > 100 µM
[14]
  CC50: > 100 µM

## C[C@H](NP(=O)(OC[C@@]1(F)O[C@@](C#N)(c2ccc3c(N)ncnn23)[C@H](O)[C@@H]1O)Oc1ccccc1)C(=O)OCC(C)(C)C (stereo partly drawn) [Compound 8, Neopentyl ((((2S,3S,4R,5R)-5-(4-aminopyrrolo[2,1-f][1,2,4]triazin-7-yl)-5-cyano-2-fluoro-3,4-dihydroxytetrahydrofuran-2-yl)methoxy)(phenoxy)phosphoryl)-L-alaninate]
[1]; [15]
  pEC50: 7.52
[1]; read-out: RSV EC50, HeLa-derived RSV replicon cells, 7 days, luciferase
  pEC50: 7.59
[10]; [16]
  pEC50: 6.30
[10]; read-out: EBOV EC50, HEp-2 cells, Ebola minigenome, 48 hours
  pEC50: 6.10
[2]
  pEC50: 7.00
[11]
  CC50: > 100 µM
[12]; Dengue virus, Huh7.5, 144 h
  pEC50: 6.96
[12]
  pEC50: 6.85
[5]
  CC50 at 5 days: > 50 µM
[6]
  CC50 at 4 d: 64 µM
